Data on 8 compounds can be found in patent US6833456B2, “Indolyl-urea derivatives of thienopyridines useful as antiangiogenic agents, and methods for their use” (Agouron Pharmaceuticals, Inc., priority 2002, dated 2004).

The target in series [1] is T1, unphosphorylated VEGF-R2Δ50 (FLVK) (Homo sapiens, UniProt P35968, DEL940-989/E990V).
T1 construct: VEGF-R2Δ50 contains residues 806-939 and 990-1171; made in house; host or cells: baculovirus/insect cell system
Put plainly: VEGF-R2 coupled spectrophotometric assay, unphosphorylated construct (FLVK). It is filed as biochemical. The conditions noted are these: for inhibition at 0.05 µM: percent inhibition at 50 nM. Summed up: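 Continuous coupled assay (PEP, PK, LDH; NADH loss at 340 nm) in 200 mM HEPES pH 7.5 with 3 mM ATP, 20 mM poly(E4Y1), 60 mM MgCl2 plus 2 mM MnCl2, started with 5-40 nM non-autophosphorylated VEGF-R2Δ50. Ki values from activity across compound concentrations, Morrison fit.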

In series [2] the target is T2, KDR (VEGFR2) (Homo sapiens, UniProt P35968).
T2 construct: expressed in transfected cells; host or cells: porcine aorta endothelial (PAE) cells
T2 sequence (P35968 20-1356): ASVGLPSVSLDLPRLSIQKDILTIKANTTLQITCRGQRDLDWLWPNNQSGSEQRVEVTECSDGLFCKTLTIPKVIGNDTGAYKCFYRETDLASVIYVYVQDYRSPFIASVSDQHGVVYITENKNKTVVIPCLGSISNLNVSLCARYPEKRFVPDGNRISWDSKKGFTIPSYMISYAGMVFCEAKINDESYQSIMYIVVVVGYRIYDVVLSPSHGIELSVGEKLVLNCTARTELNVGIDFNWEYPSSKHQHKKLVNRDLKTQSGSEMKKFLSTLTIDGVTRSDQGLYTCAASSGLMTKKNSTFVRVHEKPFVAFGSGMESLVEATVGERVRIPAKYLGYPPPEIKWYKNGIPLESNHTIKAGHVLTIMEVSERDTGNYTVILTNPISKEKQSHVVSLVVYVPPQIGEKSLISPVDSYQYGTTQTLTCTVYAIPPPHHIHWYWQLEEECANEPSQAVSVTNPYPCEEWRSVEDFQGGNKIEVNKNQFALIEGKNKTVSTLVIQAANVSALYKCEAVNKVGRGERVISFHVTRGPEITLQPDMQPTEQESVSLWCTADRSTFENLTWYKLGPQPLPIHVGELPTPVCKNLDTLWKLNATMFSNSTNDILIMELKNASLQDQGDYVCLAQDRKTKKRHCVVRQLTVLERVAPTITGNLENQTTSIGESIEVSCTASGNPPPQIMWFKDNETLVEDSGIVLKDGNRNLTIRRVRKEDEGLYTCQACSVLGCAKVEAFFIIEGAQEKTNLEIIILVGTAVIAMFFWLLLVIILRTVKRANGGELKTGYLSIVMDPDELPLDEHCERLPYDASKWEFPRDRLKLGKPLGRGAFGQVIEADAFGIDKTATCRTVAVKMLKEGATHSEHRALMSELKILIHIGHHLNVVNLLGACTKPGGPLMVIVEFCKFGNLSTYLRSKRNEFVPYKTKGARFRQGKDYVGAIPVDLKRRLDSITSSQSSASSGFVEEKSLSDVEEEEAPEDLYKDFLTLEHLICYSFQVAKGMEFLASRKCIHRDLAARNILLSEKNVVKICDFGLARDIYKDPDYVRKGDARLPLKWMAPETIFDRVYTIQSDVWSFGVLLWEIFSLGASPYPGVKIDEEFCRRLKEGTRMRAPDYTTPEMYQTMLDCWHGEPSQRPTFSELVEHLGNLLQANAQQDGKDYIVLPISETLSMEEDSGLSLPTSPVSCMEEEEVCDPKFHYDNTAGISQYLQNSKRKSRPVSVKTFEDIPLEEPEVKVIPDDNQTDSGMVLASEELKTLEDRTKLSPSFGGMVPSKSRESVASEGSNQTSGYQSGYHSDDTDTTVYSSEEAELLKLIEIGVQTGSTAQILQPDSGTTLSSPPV
Put plainly: KDR (VEGFR2) phosphorylation in PAE-KDR cells assay. It counts as cell-based. Conditions: PAE cells overexpressing human KDR, VEGF stimulated; read-out: PAE KDR autophos IC50. On the procedure:
This assay determines the ability of a test compound to inhibit the autophosphorylation of KDR in porcine aorta endothelial (PAE)-KDR cells. PAE cells that overexpress human KDR were used in this assay. The cells were cultured in Ham's F12 media supplemented with 10% fetal bovine serum (FBS) and 400 ug/mL G418. Thirty thousands cells were seeded into each well of a 96-well plate in 75 μL of growth media and allowed to attach for 6 hours at 37° C. Cells were then exposed to the starvation media (Ham's F12 media supplemented with 0.1% FBS) for 16 hours. After the starvation period was over, 10 μL of test agent in 5% DMSO in starvation media were added to the test wells and 10 μL of the vehicle (5% DMSO in starvation media) were added into the control wells. The final DMSO concentration in each well was 0.5%. Plates were incubated at 37° C. for 1 hour and the cells were then stimulated with 500 ng/ml VEGF (commercially available from R & D System) in the presence of 2 mM Na3VO4 for 8 minutes. The cells were washed once with 1 mm Na3VO4 in HBSS and lysed by adding 50 μL per well of lysis buffer. One hundred μL of dilution buffer were then added to each well and the diluted cell lysate was transferred to a 96-well goat ant-rabbit coated plate (commercially available from Pierce) which was pre-coated with Rabbit anti Human Anti-flk-1 C-20 antibody (commercially available from Santa Cruz). The plates were incubated at room temperature for 2 hours and washed seven times with 1% Tween 20 in PBS. HRP-PY20 (commercially available from Santa Cruz) was diluted and added to the plate for a 30-minute incubation. Plates were then washed again and TMB peroxidase substrate (commercially available from Kirkegaard & Perry) was added for a 10-minute incubation. One hundred μL of 0.09 N H2SO4 was added to each well of the 96-well plates to stop the reaction. Phosphorylation status was assessed by spectrophotometer reading at 450 nm. IC50 values were calculated by curve fitting using a four-parameter analysis.

The target of series [3] is T3, PDGFRβ (Homo sapiens, UniProt P09619).
T3 construct: expressed in transfected cells; host or cells: porcine aorta endothelial (PAE) cells
T3 sequence (P09619 33-1106): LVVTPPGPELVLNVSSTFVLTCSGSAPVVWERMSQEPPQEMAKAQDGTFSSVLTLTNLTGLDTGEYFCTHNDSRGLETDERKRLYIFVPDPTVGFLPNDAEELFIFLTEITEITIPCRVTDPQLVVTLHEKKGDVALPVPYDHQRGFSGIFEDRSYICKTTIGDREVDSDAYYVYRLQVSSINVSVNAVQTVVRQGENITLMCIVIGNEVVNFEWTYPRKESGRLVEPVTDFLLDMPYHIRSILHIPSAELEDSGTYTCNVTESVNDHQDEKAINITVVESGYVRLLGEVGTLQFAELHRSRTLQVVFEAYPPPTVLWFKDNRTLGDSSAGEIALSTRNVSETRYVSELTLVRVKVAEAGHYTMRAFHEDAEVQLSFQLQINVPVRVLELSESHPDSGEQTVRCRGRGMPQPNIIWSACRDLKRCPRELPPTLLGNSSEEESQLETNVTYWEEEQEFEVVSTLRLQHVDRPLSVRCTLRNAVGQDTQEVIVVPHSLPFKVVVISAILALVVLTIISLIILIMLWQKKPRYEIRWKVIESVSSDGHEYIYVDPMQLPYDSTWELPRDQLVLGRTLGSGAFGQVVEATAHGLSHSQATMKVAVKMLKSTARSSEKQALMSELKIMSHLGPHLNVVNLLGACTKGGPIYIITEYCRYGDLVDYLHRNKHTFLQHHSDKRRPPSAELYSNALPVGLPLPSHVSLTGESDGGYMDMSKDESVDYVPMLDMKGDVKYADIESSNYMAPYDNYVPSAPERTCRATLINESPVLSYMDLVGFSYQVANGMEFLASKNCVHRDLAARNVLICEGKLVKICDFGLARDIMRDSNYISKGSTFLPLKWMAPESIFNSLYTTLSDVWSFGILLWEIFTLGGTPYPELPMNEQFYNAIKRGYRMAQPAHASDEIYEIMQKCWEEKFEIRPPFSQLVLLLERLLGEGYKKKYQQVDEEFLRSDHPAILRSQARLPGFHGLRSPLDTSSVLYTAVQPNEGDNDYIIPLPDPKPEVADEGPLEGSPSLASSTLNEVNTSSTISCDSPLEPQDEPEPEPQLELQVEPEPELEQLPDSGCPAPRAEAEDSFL
Description: PAE-PDGFRβ phosphorylation in PAE-PDGFRB cells assay. The conditions noted are these: PAE cells overexpressing human PDGFRβ, PDGF-BB stimulated; read-out: PAE PDGFR autophos IC50. It counts as cell-based. A digest of the protocol: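 PAE cells overexpressing human PDGFRβ, serum-starved 16 h (0.1% FBS), compound 1 h at 37° C (0.5% DMSO), then 1 μg/mL PDGF-BB with 2 mM Na3VO4 for 8 min. Receptor captured by anti-PDGFRβ, phosphotyrosine detected by HRP-PY20/TMB at 450 nm; IC50 by four-parameter fit.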

The test system of series [4] is human umbilical vein endothelial cells (HUVEC). Put plainly: HUVEC+VEGF proliferation assay. It counts as cell-based. The conditions noted are these: Homo sapiens, HUVEC, 72 h, VEGF 6 ng/mL, MTT. The protocol:
This assay determines the ability of a test compound to inhibit the growth factor-stimulated proliferation of human umbilical vein endothelial cells (“HUVEC”). HUVEC cells (passage 3-4, Clonetics, Corp.) were thawed into EGM2 culture medium (Clonetics Corp) in T75 flasks. Fresh EGM2 medium was added to the flasks 24 hours later. Four or five days later, cells were exposed to another culture medium (F12K medium supplemented with 10% fetal bovine serum (FBS), 60 μg/mL endothelial cell growth supplement (ECGS), and 0.1 mg/mL heparin). Exponentially-growing HUVEC cells were used in experiments thereafter. Ten to twelve thousand HUVEC cells were plated in 96-well dishes in 100 μl of rich, culture medium (described above). The cells were allowed to attach for 24 hours in this medium. The medium was then removed by aspiration and 105 μl of starvation media (F12K+1% FBS) was added to each well. After 24 hours, 15 μl of test agent dissolved in 1% DMSO in starvation medium or this vehicle alone was added into each treatment well; the final DMSO concentration was 0.1%. One hour later, 30 μl of VEGF (30 ng/mL) in starvation media was added to all wells except those containing untreated controls; the final VEGF concentration was 6 ng/mL. Cellular proliferation was quantified 72 hours later by MTT dye reduction, at which time cells were exposed for 4 hours MTT (Promega Corp.). Dye reduction was stopped by addition of a stop solution (Promega Corp.) and absorbance at 595 nm was determined on a 96-well spectrophotometer plate reader.

Series [5] can be described thus: Mouse PK assay. It is filed as in vivo, B6 female mice. Conditions: po. On the procedure:
The pharmacokinetics (e.g., absorption and elimination) of drugs in mice were analyzed using the following experiment. Test compounds were formulated as a suspension in a 30:70 (PEG 400: acidified H2O) vehicle. This solution was administered orally (p.o.) and intraperitoneally (i.p.) at 50 mg/kg to two distinct groups (n=4) of B6 female mice. Blood samples were collected via an orbital bleed at time points: 0 hour (pre-dose), 0.5 hr, 1.0 hr, 2.0 hr, and 4.0 hr post dose. Plasma was obtained from each sample by centrifugation at 2500 rpm for 5 min. Test compound was extracted from the plasma by an organic protein precipitation method. For each time bleed, 50 μL of plasma was combined with 1.0 mL of acetonitrile, vortexed for 2 min. and then spun at 4000 rpm for 15 min. to precipitate the protein and extract out the test compound. Next, the acetonitrile supernatant (the extract containing test compound) was poured into new test tubes and evaporated on a hot plate (25° C.) under a steam of N2 gas. To each tube containing the dried test compound extract, 125 μL of mobile phase (60:40, 0.025 M NH4H2PO4+2.5 mL/L TEA:acetonitrile) was added. The test compound was resuspended in the mobile phase by vortexing and more protein was removed by centrifugation at 4000 rpm for 5 min. Each sample was poured into an HPLC vial for test compound analysis on an Hewlett Packard 1100 series HPLC with UV detection. From each sample, 95 μL was injected onto a Phenomenex-Prodigy reverse phase C-18, 150×3.2 mm column and eluted with a 45-50% acetonitrile gradient run over 10 min. Test-compound plasma concentrations (μg/mL) were determined by a comparison to standard curve (peak area vs. conc. μg/mL) using known concentrations of test compound extracted from plasma samples in the manner described above. Along with the standards and unknowns, three groups (n=4) of quality controls (0.25 μg/mL, 1.5 μg/mL, and 7.5 μg/mL) were run to insure the consistency of the analysis. […] The quantitated test samples were plotted for visual display using Kaleidagraph software and their pharmacokinetic parameters were determined using WIN NONLIN software.

Values joined by “and” are separate entries in the source; they are usually repeats but may differ in a detail not shown here. Identical values can stand only once.

Broadly, the Ki is the equilibrium dissociation constant of an inhibitor or competing ligand from its target. Read a high Ki as weaker binding. A word on the inhibition: it is the relative decrease from the control value, in per cent. Low values mean little suppression, high ones strong suppression. In general, IC50 refers to the concentration that inhibits the measured activity by half. For orientation: AUC means the area under the concentration-time curve, a measure of exposure. Read a low AUC as less exposure.

T1 sequence (P35968 with tags, fused parts or gaps DEL940-989/E990V limits assumed): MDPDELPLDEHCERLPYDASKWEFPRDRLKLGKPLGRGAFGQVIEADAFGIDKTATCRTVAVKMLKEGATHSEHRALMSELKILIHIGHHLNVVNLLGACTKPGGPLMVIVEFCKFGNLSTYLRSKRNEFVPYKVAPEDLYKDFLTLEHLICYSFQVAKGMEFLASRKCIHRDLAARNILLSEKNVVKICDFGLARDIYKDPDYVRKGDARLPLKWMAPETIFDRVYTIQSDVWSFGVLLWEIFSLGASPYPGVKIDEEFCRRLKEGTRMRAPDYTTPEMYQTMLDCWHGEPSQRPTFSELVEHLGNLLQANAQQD

Regarding `CNC(=O)n1c(C)cc2c(F)c(Oc3ccnc4cc(-c5nc(C(C)(C)O)cs5)sc34)ccc21` [Example 3k, 4-Fluoro-5-{2-[4-(1-hydroxy-1-methyl-ethyl)-thiazol-2-yl]-thieno[3,2-b]pyridin-7-yloxy}-2-methyl-indole-1-carboxylic acid methylamide], in series [1], affinity was put at a Ki of 0.071 nM and the inhibition at 0.05 µM turned out to be 100%. In addition, the IC50 in series [2] came to 0.3 nM. Moreover, the half-inhibitory concentration (IC50) in series [3] turned out to be 18.4 nM.

Turning to `C#CCNC(=O)n1c(C)cc2cc(Oc3ccnc4cc(C(=O)N5C[C@H](OC)[C@@H](OC)C5)sc34)ccc21` [Example 4q, 5-[2-(3S,4S-Dimethoxy-pyrrolidine-1-carbonyl)-thieno[3,2-b]pyridin-7-yloxy]-2-methyl-indole-1-carboxylic acid prop-2-ynylamide], the IC50 in series [4] was 0.27 nM. In series [1], affinity was put at a Ki of 0.475 nM and the inhibition at 0.05 µM worked out at 98%. In addition, the IC50 in series [2] came out at 0.26 nM.

As for `C#CCNC(=O)n1c(C)cc2c(F)c(Oc3ccnc4cc(C(=O)N5CC[C@@H](O)C5)sc34)ccc21` [Example 5p, 4-Fluoro-5-[2-((R)-3-hydroxy-pyrrolidine-1-carbonyl)-thieno[3,2-b]pyridin-7-yloxy]-2-methyl-indole-1-carboxylic acid prop-2-ynylamide], in series [1], the affinity corresponds to a Ki of 0.083 nM and the inhibition at 0.05 µM worked out at 100%. For the same compound, the IC50 in series [2] is 0.35 nM. In addition, the IC50 in series [3] was determined as 4.6 nM.

As for `C#CCNC(=O)n1c(C)cc2cc(Nc3ccnc4cc(C(=O)N5CCC[C@@H]5COC)sc34)ccc21` [Example 7d, 5-[2-(2R-Methoxymethyl-pyrrolidine-1-carbonyl)-thieno[3,2-b]pyridin-7-ylamino]-2-methyl-indole-1-carboxylic acid prop-2-ynylamide], in series [1], the affinity corresponds to a Ki of 0.504 nM. Also, the inhibition at 0.05 µM in series [1] turned out to be 96%. Also, the figures for the IC50 in series [2] and in series [3] were 0.26 nM and 62 nM, respectively.

`CNC(=O)n1c(C)cc2cc(Oc3ccnc4cc(C(=O)N5C[C@H](OC)[C@@H](OC)C5)sc34)ccc21` [Example 8b, 5-[(2-{[(3S,4S)-3,4-Dimethoxypyrrolidin-1-yl]carbonyl}thieno[3,2-b]pyridin-7-yl)oxy]-2-dimethyl-1H-indole-1-carboxylic acid methylamide]: in series [1], the Ki was determined as 0.202 nM and the inhibition at 0.05 µM came out at 97%. In series [2], the IC50 turned out to be 0.24 nM.

`CCCNC(=O)n1c(C)cc2cc(Oc3ccnc4cc(C(=O)N5CC[C@@H](N(C)C)C5)sc34)ccc21` [Example 8h, 5-[(2-{[(3R)-3-(Dimethylamino)pyrrolidin-1-yl]carbonyl}thieno[3,2-b]pyridin-7-yl)oxy]-2-methyl-N-propyl-1H-indole-1-carboxamide]: the AUC in series [5] (female, B6, mouse, plasma, 50 mg/kg) worked out at 2390 ng·h/mL. Moreover, the Cmax in series [5] (female, B6, mouse, plasma, 50 mg/kg, p.o., 50 mg/kg, read-out: Mouse Cmax, po ng-h/mL) was determined as 920 ng/mL. Further, the “Mouse Cmin, po” value in series [5] came out at 204 ng/mL. For the same compound, the IC50 in series [4] was found to be 0.16 nM. In series [1], this compound returned a Ki of 0.301 nM and an inhibition at 0.05 µM of 99%. The IC50 in series [3] stood at 19 nM.

In series [1], `CO[C@H]1CCN(C(=O)c2cc3nccc(Oc4ccc5c(c4)cc(C)n5C(=O)NCCO)c3s2)C1` [Example 9c, 5-[2-(3S-Methoxy-pyrrolidine-1-carbonyl)-thieno[3,2-b]pyridin-7-yloxy]-2-methyl-indole-1-carboxylic acid (2-hydroxy-ethyl)-amide] gave a Ki of 3.24 nM and an inhibition at 0.05 µM of 81%. The half-maximal inhibitory concentration (IC50) in series [2] is 1.44 nM and 1.1 nM. The IC50 in series [3] is 56 nM.

In series [1], `CCNC(=O)n1c(C)cc2cc(Oc3ccnc4cc(C(=O)N5CC[C@H](OC)C5)sc34)ccc21` [Example 9e, 5-[2-(3S-Methoxy-pyrrolidine-1-carbonyl)-thieno[3,2-b]pyridin-7-yloxy]-2-methyl-indole-1-carboxylic acid ethylamide] registered a Ki of 0.105 nM and an inhibition at 0.05 µM of 99%. For the same compound, the IC50 in series [2] came to 0.24 nM. For the same compound, the IC50 in series [3] came to 26 nM.
